Entries after “also recorded” stand apart in the source; their conditions may differ.
Columns and labels:
FGF5 binding to FGFR1c = biological target: T1, FGF5 binding to FGFR1c (Homo sapiens, UniProt P11362); experiment: Plate-based binding of paracrine FGF to Fc-FGFR1c with heparin and/or sKL; conditions: 0.4 USP heparin
T1 construct: a chimeric protein consisting of the FGFR1 ectodomain and the Fc region of a human IgG; purchased R&D Systems 237-F5/CF; 658FR050
Description: (§1) Proteins were coated on 96-well plates (MaxiSorp; 439454, Thermo Fisher Scientific), and proteins were added to wells in 100 μl of enzyme-linked immunosorbent assay (ELISA) coating buffer (E107, Bethyl Laboratories) with a lid placed overtop and incubated at 4° C. overnight. Plates were washed 5× with 350 μl of assay buffer (50 mM Tris [pH 7.4], 200 mM NaCl, 0.01% Tween 20) on a 50 TS microplate washer (BioTek). Plates were blocked for 1 hour in 200 μl of assay buffer with 0.5% BSA. Plates were washed as before, and proteins were incubated on plates in 100 μl of assay buffer with 0.5% BSA. Proteins or heparin was incubated in orders described in the respective figure legends. Assays using FLAG-tag-based detection were incubated with anti-FLAG coupled to HRP at 1:20,000, and assays using Fc detection were incubated with anti-human Fc coupled to HRP at 1:10,000. Plates were washed as above, and 100 μl of 3,3′,5,5′-tetramethylbenzidine (TMB) substrate (E102, Bethyl Laboratories) was added for 15 to 20 minutes until positive wells developed a dark blue color. Reactions were stopped with ELISA stop solution (E115, Bethyl Laboratories) and analyzed using the Synergy HI plate reader (BioTek) at 450 nm wavelength. […] As a control to remove background absorbance values, wells were coated with an equal amount of BSA to match the amount of protein coated in experimental wells and treated the same as experimental wells. To study the effects of sKL on the binding between paracrine FGFs and FGFRs, plates were run as above except coated with paracrine FGFs. Fc-FGFR1 was preincubated with sKL or vehicle for 60 minutes, and then the combination was added to wells and the assay was run as before.

FGF2 binding to FGFR1c = biological target: T2, FGF2 binding to FGFR1c (Homo sapiens, UniProt P11362); experiment: as above; conditions: 0.4 USP heparin before incubation with FGFR1c
T2 construct: a chimeric protein consisting of the FGFR1 ectodomain and the Fc region of a human IgG; purchased R&D Systems 233-FB/CF; 658FR050
T2 sequence (P11362 22-376 limits assumed): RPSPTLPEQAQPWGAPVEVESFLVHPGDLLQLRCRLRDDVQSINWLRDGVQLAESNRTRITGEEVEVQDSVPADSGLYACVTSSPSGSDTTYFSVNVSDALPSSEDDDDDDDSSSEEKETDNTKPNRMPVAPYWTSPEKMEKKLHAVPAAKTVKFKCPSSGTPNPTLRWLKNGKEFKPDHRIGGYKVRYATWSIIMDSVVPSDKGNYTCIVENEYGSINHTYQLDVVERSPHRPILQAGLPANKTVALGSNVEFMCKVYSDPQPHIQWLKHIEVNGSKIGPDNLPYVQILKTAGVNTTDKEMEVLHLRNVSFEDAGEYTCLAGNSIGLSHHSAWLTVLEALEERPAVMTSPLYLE
Description: as §1

[1] = system: neonatal rat ventricular myocytes; experiment: Hypertrophic growth of isolated neonatal rat ventricular myocytes (cell area); assay type: cell-based; conditions: for FGF23-induced increase in the cell area in the presence of heparin: heparin 0.19 USP/ml, increasing FGF23 concentrations, 48 hours
Description: Neonatal rat ventricular myocytes (NRVMs) were isolated using a kit according to the manufacturer's protocol (LK003300, Worthington Biochemical Corporation), as done previously.^13,16,17 Briefly, hearts from 1- to 3-day-old Sprague Dawley rats (Envigo) were harvested and minced in calcium- and magnesium-free Hanks balanced salt solution and the tissue was digested with 50 μg/ml of trypsin at 4° C. for 20 to 24 hours. Soybean trypsin inhibitor in Hanks balanced salt solution was added, and the tissue was further digested with collagenase (in Leibovitz L-15 medium) under slow rotation (0.14 g) at 37° C. for 45 minutes. Cells were broken up by triturating the suspension 20× with a standard 10-ml plastic serological pipette. Cells were then filtered through a cell strainer (70 μm, BD Falcon). Cells were incubated at room temperature for 20 minutes and spun at 100 g for 5 minutes. The cell pellet was resuspended in plating medium (DMEM Base [10013CV, Corning], 17% M199 [12350039, Gibco], 15% FBS [26140079, Gibco], I× Pen/Strep [15140122, Gibco]). For cell tracings, NRVMs were grown in 24-well plates on glass coverslips (CLS1760012, Chemglass). Slips were precoated with laminin (23017015, Invitrogen) at 10 μg/ml for 1 hour at 37° C. dissolved in PBS. Laminin was aspirated, and cells and medium were added. Cells were counted by a hemocytometer and plated at 4×10^5 cells per well. […] After 48 hours, maintenance medium was replaced, and after another 48 hours, cells were ready for treatment, giving a total of 72 hours of plating medium and 96 hours of maintenance medium before treatment. […]
The medium was aspirated, and cultured NRVMs were fixed in 2% paraformaldehyde (P-6148, Sigma-Aldrich) and 4% sucrose dissolved in PBS for 5 minutes followed by permeabilization with 1% Triton X-100 dissolved in PBS for 10 minutes. […] The cross-sectional area of myocytes was measured on the basis of α-actinin-positive staining using ImageJ software (v1.53, National Institutes of Health). […]

FGF2 binding to FGFR1c with heparin (FGF2 binding to FGFR1c): increased the binding of FGF2
Substance: heparin [reference compound]
FGF5 binding to FGFR1c with heparin (FGF5 binding to FGFR1c): increased the binding of FGF2 and FGFS to FGFR1c | FGF2 binding to FGFR1c with heparin (FGF2 binding to FGFR1c; listed as heparin): significantly increased; also recorded: increased FGF2 binding | FGF23-induced increase in the cell area in the presence of heparin [1]: increased this effect at all FGF23 concentrations | FGF23-induced increase in the cell area in the presence of heparin ([1]; listed as heparin): further elevated | NRVM area, treatment by itself ([1]; without FGF23, 48 hours): no effect
